According to the NIST ThermoML archive (doi:10.1016/j.jct.2017.03.006):
± gives the expanded uncertainty stated by the source.

Test: xn = mol fraction of the nth substance listed
Details: Liquid; for mass density: Vibrating tube method; for viscosity: Concentric cylinders viscometry

Cc1ccc(C)c(C)c1 [1,2,4-trimethylbenzene] + CCC(C)O
Details	mass density [kg/m3]	viscosity [mPa·s]
273.15 K, 60000 kPa, x2 = 0.1	917.1 ± 0.7	–
273.15 K, 60000 kPa, x2 = 0.1989	911.9 ± 0.7	–
273.15 K, 60000 kPa, x2 = 0.3011	906.2 ± 0.8	–
273.15 K, 60000 kPa, x2 = 0.4002	900.7 ± 0.8	–
273.15 K, 60000 kPa, x2 = 0.5001	894.6 ± 0.8	–
273.15 K, 60000 kPa, x2 = 0.5997	888.3 ± 0.8	–
273.15 K, 60000 kPa, x2 = 0.6999	881.3 ± 0.8	–
273.15 K, 60000 kPa, x2 = 0.7999	873.8 ± 0.8	–
273.15 K, 60000 kPa, x2 = 0.9	865.5 ± 0.8	–
273.15 K, 70000 kPa, x2 = 0	926.2 ± 0.7	–
273.15 K, 70000 kPa, x2 = 0.1	921.5 ± 0.8	–
273.15 K, 70000 kPa, x2 = 0.1989	916.2 ± 0.8	–
273.15 K, 70000 kPa, x2 = 0.3011	910.7 ± 0.8	–
273.15 K, 70000 kPa, x2 = 0.4002	905.2 ± 0.8	–
273.15 K, 70000 kPa, x2 = 0.5001	899.2 ± 0.8	–
273.15 K, 70000 kPa, x2 = 0.5997	892.8 ± 0.8	–
273.15 K, 70000 kPa, x2 = 0.6999	886 ± 0.8	–
273.15 K, 70000 kPa, x2 = 0.7999	878.4 ± 0.8	–
273.15 K, 70000 kPa, x2 = 0.9	870.2 ± 0.8	–
273.15 K, 80000 kPa, x2 = 0	930.3 ± 0.8	–
273.15 K, 80000 kPa, x2 = 0.1	925.7 ± 0.8	–
273.15 K, 80000 kPa, x2 = 0.1989	920.6 ± 0.8	–
273.15 K, 80000 kPa, x2 = 0.3011	915 ± 0.8	–
273.15 K, 80000 kPa, x2 = 0.4002	909.6 ± 0.8	–
273.15 K, 80000 kPa, x2 = 0.5001	903.5 ± 0.8	–
273.15 K, 80000 kPa, x2 = 0.5997	897.2 ± 0.8	–
273.15 K, 80000 kPa, x2 = 0.6999	890.3 ± 0.8	–
273.15 K, 80000 kPa, x2 = 0.7999	882.8 ± 0.8	–
273.15 K, 80000 kPa, x2 = 0.9	874.6 ± 0.8	–
273.15 K, 90000 kPa, x2 = 0	934.2 ± 0.8	–
273.15 K, 90000 kPa, x2 = 0.1	929.8 ± 0.8	–
273.15 K, 90000 kPa, x2 = 0.1989	924.7 ± 0.8	–
273.15 K, 90000 kPa, x2 = 0.3011	919.1 ± 0.8	–
273.15 K, 90000 kPa, x2 = 0.4002	913.7 ± 0.8	–
273.15 K, 90000 kPa, x2 = 0.5001	907.7 ± 0.8	–
273.15 K, 90000 kPa, x2 = 0.5997	901.4 ± 0.8	–
273.15 K, 90000 kPa, x2 = 0.6999	894.6 ± 0.8	–
273.15 K, 90000 kPa, x2 = 0.7999	887.1 ± 0.8	–
273.15 K, 90000 kPa, x2 = 0.9	878.9 ± 0.8	–
273.15 K, 100000 kPa, x2 = 0	938 ± 0.8	–
273.15 K, 100000 kPa, x2 = 0.1	933.7 ± 0.8	–
273.15 K, 100000 kPa, x2 = 0.1989	928.6 ± 0.8	–
273.15 K, 100000 kPa, x2 = 0.3011	923.1 ± 0.8	–
273.15 K, 100000 kPa, x2 = 0.4002	917.7 ± 0.8	–
273.15 K, 100000 kPa, x2 = 0.5001	911.7 ± 0.8	–
273.15 K, 100000 kPa, x2 = 0.5997	905.5 ± 0.8	–
273.15 K, 100000 kPa, x2 = 0.6999	898.7 ± 0.8	–
273.15 K, 100000 kPa, x2 = 0.7999	891.2 ± 0.8	–
273.15 K, 100000 kPa, x2 = 0.9	883 ± 0.9	–
273.15 K, 110000 kPa, x2 = 0	941.7 ± 0.8	–
273.15 K, 110000 kPa, x2 = 0.1	937.6 ± 0.8	–
273.15 K, 110000 kPa, x2 = 0.1989	932.5 ± 0.8	–
273.15 K, 110000 kPa, x2 = 0.3011	927 ± 0.8	–
273.15 K, 110000 kPa, x2 = 0.4002	921.6 ± 0.8	–
273.15 K, 110000 kPa, x2 = 0.5001	915.7 ± 0.8	–
273.15 K, 110000 kPa, x2 = 0.5997	909.4 ± 0.8	–
273.15 K, 110000 kPa, x2 = 0.6999	902.5 ± 0.8	–
273.15 K, 110000 kPa, x2 = 0.7999	895.1 ± 0.9	–
273.15 K, 110000 kPa, x2 = 0.9	887 ± 0.9	–
273.15 K, 120000 kPa, x2 = 0	945.2 ± 0.8	–
273.15 K, 120000 kPa, x2 = 0.1	941.3 ± 0.8	–
273.15 K, 120000 kPa, x2 = 0.1989	936.2 ± 0.8	–
273.15 K, 120000 kPa, x2 = 0.3011	930.8 ± 0.8	–
273.15 K, 120000 kPa, x2 = 0.4002	925.3 ± 0.8	–
273.15 K, 120000 kPa, x2 = 0.5001	919.5 ± 0.8	–
273.15 K, 120000 kPa, x2 = 0.5997	913.2 ± 0.8	–
273.15 K, 120000 kPa, x2 = 0.6999	906.4 ± 0.8	–
273.15 K, 120000 kPa, x2 = 0.7999	899 ± 0.9	–
273.15 K, 120000 kPa, x2 = 0.9	890.8 ± 0.9	–
273.15 K, 130000 kPa, x2 = 0	948.6 ± 0.8	–
273.15 K, 130000 kPa, x2 = 0.1	944.9 ± 0.8	–
273.15 K, 130000 kPa, x2 = 0.1989	939.9 ± 0.8	–
273.15 K, 130000 kPa, x2 = 0.3011	934.4 ± 0.8	–
273.15 K, 130000 kPa, x2 = 0.4002	929 ± 0.8	–
273.15 K, 130000 kPa, x2 = 0.5001	923.2 ± 0.8	–
273.15 K, 130000 kPa, x2 = 0.5997	916.9 ± 0.8	–
273.15 K, 130000 kPa, x2 = 0.6999	910.1 ± 0.9	–
273.15 K, 130000 kPa, x2 = 0.7999	902.7 ± 0.9	–
273.15 K, 130000 kPa, x2 = 0.9	894.6 ± 0.9	–
273.15 K, 140000 kPa, x2 = 0	952 ± 0.8	–
273.15 K, 140000 kPa, x2 = 0.1	948.2 ± 0.8	–
273.15 K, 140000 kPa, x2 = 0.1989	943.3 ± 0.8	–
273.15 K, 140000 kPa, x2 = 0.3011	937.6 ± 0.8	–
273.15 K, 140000 kPa, x2 = 0.4002	932.3 ± 0.8	–
273.15 K, 140000 kPa, x2 = 0.5001	926.7 ± 0.8	–
273.15 K, 140000 kPa, x2 = 0.5997	920.4 ± 0.8	–
273.15 K, 140000 kPa, x2 = 0.6999	913.4 ± 0.9	–
273.15 K, 140000 kPa, x2 = 0.7999	906 ± 0.9	–
273.15 K, 140000 kPa, x2 = 0.9	897.9 ± 0.9	–
293.15 K, 100 kPa, x2 = 0	875.1 ± 0.7	0.888 ± 0.019
293.15 K, 100 kPa, x2 = 0.1	869.3 ± 0.7	–
293.15 K, 100 kPa, x2 = 0.1001	–	0.885 ± 0.019
293.15 K, 100 kPa, x2 = 0.2261	–	0.909 ± 0.019
293.15 K, 100 kPa, x2 = 0.3	–	0.935 ± 0.02
293.15 K, 100 kPa, x2 = 0.3966	–	1.013 ± 0.021
293.15 K, 100 kPa, x2 = 0.5298	–	1.121 ± 0.024
293.15 K, 100 kPa, x2 = 0.6001	–	1.25 ± 0.026
293.15 K, 100 kPa, x2 = 0.7001	–	1.48 ± 0.031
293.15 K, 100 kPa, x2 = 0.7997	–	1.85 ± 0.038
293.15 K, 100 kPa, x2 = 0.9001	–	2.47 ± 0.051
